# According to ChEMBL document CHEMBL1150270, “Effect of the major glycosides of Harpagophytum procumbens (Devil's Claw) on epidermal cyclooxygenase-2 (COX-2) in vitro” (2008):
# Calls of active or inactive are those of the source. The calls are words filed in the database; no cut-off is given here.
# What was measured:
# Type in all cases: functional
# Sus scrofa [1] = species on record: Sus scrofa; assay: Inhibition of COX2 synthesis in pig skin
# Sus scrofa [2] = species on record: Sus scrofa; assay: Reduction of COX2 expression in pig skin at 500 uM by Western blotting
# Sus scrofa [3] = species on record: Sus scrofa; assay: Suppression of COX2 expression in pig skin by immunostaining after 6 hrs
# Sus scrofa [4] = species on record: Sus scrofa; assay: Increase in COX2 expression in pig skin at 500 uM by Western blotting
SMILES,inhibition (INH) (Sus scrofa [1]),Activity (Sus scrofa [2]),Activity (Sus scrofa [3]),Activity (Sus scrofa [4])
C[C@]1(OC(=O)/C=C/c2ccc(O)cc2)C[C@@H](O)[C@]2(O)C=CO[C@@H](O[C@@H]3O[C@H](CO)[C@@H](O)[C@H](O)[C@H]3O)[C@@H]21,<50%,Active,Active,–
C[C@]1(O)C[C@@H](O)[C@]2(O)C=CO[C@@H](O[C@H]3O[C@H](CO)[C@@H](O)[C@H](O)[C@H]3O)[C@@H]21,–,–,–,Active
C[C@@H]1O[C@@H](O[C@@H]2[C@@H](O)[C@H](OCCc3ccc(O)c(O)c3)O[C@H](CO)[C@H]2OC(=O)/C=C/c2ccc(O)c(O)c2)[C@H](O)[C@H](O)[C@H]1O [ACETOSIDE],<50%,–,Active,–
C[C@]1(OC(=O)/C=C/c2ccccc2)C[C@@H](O)[C@]2(O)C=CO[C@@H](O[C@@H]3O[C@H](CO)[C@@H](O)[C@H](O)[C@H]3O)[C@@H]21 [HARPAGOSIDE],<50%,–,Active,–
CC(C)Cc1ccc(C(C)C(=O)O)cc1 (stereo not given) [IBUPROFEN],<50%,–,Active,–
